Laboratory results taken from ChEMBL document CHEMBL3272194, “Antiinflammatory activity of some 2,3-dihydrobenzofuran-5-acetic acids and related compounds” (J Med Chem, 1976).

How the values were obtained:
Rattus norvegicus [1] = assay: Antiinflammatory activity in Wistar rat assessed as reduction in carrageenan-induced paw edema at 20 mg/kg, po treated 2 hrs before carrageenan challenge measured after 3 hrs; type: functional
Rattus norvegicus [2] = assay: Antiinflammatory activity in Wistar rat assessed as reduction in carrageenan-induced paw edema at 100 mg/kg, po treated 2 hrs before carrageenan challenge measured after 3 hrs; type: functional
Rattus norvegicus [3] = assay: Toxicity in po dosed Wistar rat assessed as gastric irritation at 20 to 100 mg/kg, po; type: organism-based, Stomach; parameters: dose 20-100 mg/kg, route oral; conditions: in vivo
[4] = Toxicity in po dosed Wistar rat; type: organism-based; conditions: in vivo
Rattus norvegicus [5] = assay: Antiinflammatory activity in po dosed Wistar rat assessed as reduction in carrageenan-induced paw edema treated 2 hrs before carrageenan challenge measured after 3 hrs; type: functional
Rattus norvegicus [6] = assay: Toxicity in po dosed Wistar rat assessed as gastric irritation at 10 to 50 mg/kg, po; type: organism-based, Stomach; parameters: dose 10-50 mg/kg, route oral; conditions: in vivo
Rattus norvegicus [7] = assay: Antiinflammatory activity in Wistar rat assessed as reduction in carrageenan-induced paw edema at 10 mg/kg, po treated 2 hrs before carrageenan challenge measured after 3 hrs; type: functional
Rattus norvegicus [8] = assay: Antiinflammatory activity in Wistar rat assessed as reduction in carrageenan-induced paw edema at 50 mg/kg, po treated 2 hrs before carrageenan challenge measured after 3 hrs; type: functional

Structure (SMILES): CC1Cc2cc(CC(=O)O)cc(Cl)c2O1 (configuration not stated)
- inhibition in vivo at 20 mg/kg (Rattus norvegicus [1]): 20%
- inhibition in vivo at 100 mg/kg (Rattus norvegicus [2]): 27%
- Activity (Rattus norvegicus [3]): Toxic

Structure (SMILES): CC1Oc2c(Cl)cc(CC(=O)O)cc2C1C.NC1CCCCC1 (configuration not stated)
- inhibition in vivo at 20 mg/kg (Rattus norvegicus [1]): 24%
- inhibition in vivo at 100 mg/kg (Rattus norvegicus [2]): 30%
- Activity (Rattus norvegicus [3]): Toxic

Structure (SMILES): CC1(C)Cc2cc(CC(=O)O)cc(Cl)c2O1
- inhibition in vivo at 20 mg/kg (Rattus norvegicus [1]): 30%
- inhibition in vivo at 100 mg/kg (Rattus norvegicus [2]): 37%
- Activity (Rattus norvegicus [3]): Toxic

Structure (SMILES): CC1(C)Cc2cc(CC(=O)O)ccc2O1
- inhibition in vivo at 20 mg/kg (Rattus norvegicus [1]): 25%
- inhibition in vivo at 100 mg/kg (Rattus norvegicus [2]): 32%
- Activity (Rattus norvegicus [3]): Toxic

Structure (SMILES): CC1(C)Cc2cc(CC(=O)NO)cc(Cl)c2O1
- inhibition in vivo at 20 mg/kg (Rattus norvegicus [1]): 7%
- inhibition in vivo at 100 mg/kg (Rattus norvegicus [2]): 13%
- Activity (Rattus norvegicus [3]): Toxic

Structure (SMILES): CC1(C)Cc2cc(CC(=O)NO)ccc2O1
- inhibition in vivo at 20 mg/kg (Rattus norvegicus [1]): 5%
- inhibition in vivo at 100 mg/kg (Rattus norvegicus [2]): 9%
- Activity (Rattus norvegicus [3]): Toxic

Structure (SMILES): CC1(C)Cc2cc(CC(N)=O)cc(Cl)c2O1
- inhibition in vivo at 20 mg/kg (Rattus norvegicus [1]): 25%
- inhibition in vivo at 100 mg/kg (Rattus norvegicus [2]): 31%
- Activity (Rattus norvegicus [3]): Toxic

Structure (SMILES): CC1(C)Cc2cc(CC(N)=O)ccc2O1
- inhibition in vivo at 20 mg/kg (Rattus norvegicus [1]): 15%
- inhibition in vivo at 100 mg/kg (Rattus norvegicus [2]): 20%
- Activity (Rattus norvegicus [3]): Toxic

Structure (SMILES): CC1Cc2cc(CC(N)=O)cc(Cl)c2O1 (configuration not stated)
- inhibition in vivo at 20 mg/kg (Rattus norvegicus [1]): 2%
- inhibition in vivo at 100 mg/kg (Rattus norvegicus [2]): 17%
- Activity (Rattus norvegicus [3]): Toxic

Structure (SMILES): CC(C(=O)O)c1cc(Cl)c2c(c1)CC(C)(C)O2 (configuration not stated)
- inhibition in vivo at 20 mg/kg (Rattus norvegicus [1]): 45%
- inhibition in vivo at 100 mg/kg (Rattus norvegicus [2]): 58%
- LD50 [4]: 720 mg/kg
- ED50 (Rattus norvegicus [5]): 45 mg/kg
- Activity (Rattus norvegicus [3]): Toxic

Structure (SMILES): CC1Cc2cc(C(C)C(=O)O)cc(Cl)c2O1.NC1CCCCC1 (configuration not stated)
- inhibition in vivo at 20 mg/kg (Rattus norvegicus [1]): 35%
- inhibition in vivo at 100 mg/kg (Rattus norvegicus [2]): 57%
- Activity (Rattus norvegicus [3]): Toxic

Structure (SMILES): CC1(C)Cc2cc(C(=O)/C=C/C(=O)O)cc(Cl)c2O1
- inhibition in vivo at 20 mg/kg (Rattus norvegicus [1]): 9%
- inhibition in vivo at 100 mg/kg (Rattus norvegicus [2]): 3%
- Activity (Rattus norvegicus [3]): Toxic

Structure (SMILES): CC1(C)Cc2cc(C(=O)CCC(=O)O)cc(Cl)c2O1
- inhibition in vivo at 20 mg/kg (Rattus norvegicus [1]): 24%
- inhibition in vivo at 100 mg/kg (Rattus norvegicus [2]): 37%
- Activity (Rattus norvegicus [3]): Toxic

Structure (SMILES): CC1(C)Cc2cc(CCCC(=O)O)cc(Cl)c2O1
- inhibition in vivo at 20 mg/kg (Rattus norvegicus [1]): 32%
- inhibition in vivo at 100 mg/kg (Rattus norvegicus [2]): 32%
- Activity (Rattus norvegicus [3]): Toxic

Structure (SMILES): CCCCC1C(=O)N(c2ccccc2)N(c2ccccc2)C1=O [PHENYLBUTAZONE]
- Activity (Rattus norvegicus [6]): Toxic
- inhibition in vivo at 10 mg/kg (Rattus norvegicus [7]): 24%
- inhibition in vivo at 50 mg/kg (Rattus norvegicus [8]): 51%
